This is an account of results in patent publication US5789440A, “5,6-dihydropyrone derivatives as protease inhibitors and antiviral agents” (Warner-Lambert Company, priority 1994, dated 1998).

≈ marks a conversion by molar mass, not a printed value.

The test system of one assay is HIV. Conditions: R. Nagorny et al., AIDS 7: 129-130 (1993); cited from earlier work.
The test system of assay [1] is Enterococcus foecalis MGH2. In words: Antibacterial activity, microtitration dilution method. The class given is cell-based. Conditions: read-out: minimum inhibitory concentration (MIC). The source says:
(§1) The compounds of the invention display antibacterial activity when tested by the microtitration dilution method as described in Heifetz, et al., Antimicr. Agents. & Chemoth. 6: 124 (1974) which is incorporated herein by reference.
(§2) By use of the above referenced method, the following minimum inhibitory concentration values (MICs in μg/mL) were obtained for representative compounds of the invention vs. clinically relevant gram positive pathogens which have become highly resistant to conventional therapy in recent years.

In assay [2] the test system is Streptococcus pyogenes C203. The description is as above. The settings on record: read-out: minimum inhibitory concentration (MIC). The format is cell-based.
Description: as §1, §2

The test system of assay [3] is Staphylococcus aureus H228. The description is as above. The class given is cell-based. The settings on record: read-out: minimum inhibitory concentration (MIC).
Description: as §1, §2

Assay [4] concerns Staphylococcus aureus UC-76. Described as above. The format is cell-based. The settings on record: UC76, read-out: minimum inhibitory concentration (MIC).
Description: as §1, §2

In assay [5] the test system is Streptococcus pneumonia 5V-1. The assay is described as above. The class given is cell-based. The settings on record: Streptococcus pneumoniae, 5V1, read-out: minimum inhibitory concentration (MIC).
Description: as §1, §2

Another assay concerns HIV1iiib in H9 cells. In words: Antiviral activity in H9 cells (acute HIV-1 infection, reverse transcriptase assay). The class given is cell-based. Conditions: Human immunodeficiency virus 1, multiplicity of infection 0.01, 0.1% DMSO, read-out: Concentration for 50% Protection. Here is the method: Using the general methods of Pauwels et al., (J. Virol. Methods, 16, 171-185, 1987) and Mann et al. (AIDS Research and Human Retroviruses, 253-255, 1989 (anti-viral assays of active HIV-1 infection were performed in the H9 cell line. Cultures were batch infected in 1 ml of RPM1 1640 media/10% fetal calf serum containing 10^5 infectious doses of HIV1iiib for an effective multiplicity of infection of 0.01. After 2 hours of viral absorption, cells were washed once and palted in 96-wellmicrotiter plates at a density of 10^4 cells per well. Test compounds were added to produce the desired concentration of drug and 0.1% DMSO in a final volume of 200 μl. Uninfected parallel cultures were maintained for XTT cytotoxicity assay at 7 days post infection. Cultures were tested for viral replication by reverse transcriptase assay at 4 and 7 days post infection.

Another assay has as its target T1, HIV-1 Protease (Human immunodeficiency virus type 1 group M subtype B, UniProt P04585).
T1 construct: HIV-1 Protease; purchased Bachem Bioscience Inc
As to the kind of experiment: HIV protease inhibition (undecapeptide substrate cleavage, HPLC). Conditions: 37° C., 5 min, 40 μM substrate, pH 4.7, 2% DMSO, read-out: 50% INHIBITION CONCENTRATION
The format is biochemical. Here is the method:
1.0 mM dithiothreitol (DTT) was prepared fresh daily in 0.1% polyethylene glycol (mw 8000) 80 mM NaOAc, 160 mM NaCl, 1.0 mM EDTA, and brought to pH 4.7 with HCl.
The enzyme is obtained from Bachem Bioscience Inc. The undiluted enzyme is thawed from -80° C. and diluted 50-fold with DTT buffer. The solution is always kept at 0° C. on ice water and used in the experiment within 20 minutes after thawing.
Substrate III from Bachem Bioscience Inc. is the undecapeptide H-His-Lys-Ala-Arg-Val-Leu-p-Nitrophenylalanine-Glu-Ala-Norleucine-Ser-NH2 (>97% purity). A 200 μM stock solution in DTT buffer is prepared and stored on ice. Substrate solution is prepared fresh daily.
10 mM inhibitor (I) in dimethyl sulfoxide (DMSO) is diluted to 200 μM with DTT buffer. From the 200 μM stock solution is made a 10 μM stock solution with 2% DMSO in DTT buffer. The two inhibitor solutions are used to make final [I] =100, 50, 20, 10, 5, 2, 1, 0.5 and 0 μM with 2% DMSO in DTT buffer in each reaction well (total inhibitor volume of 50 μl).
To each reaction well is added 20 μl of substrate (final concentration of 40 μM), 50 μl of inhibitor (at a concentration such that final dilution will produce the test concentration) and 20 μl of DTT buffer. The reaction plate (96 wells) is incubated at 37° C. for at least 5 minutes.
10 μl of the diluted protease is added to the reaction well while the reaction plate is shaking. Once shaken for 10 seconds, the plate is returned to the heating block at 37° C. (final reaction volume 100 μl.)
The reaction is incubated for 5 minutes at 37° C. The reaction is stopped by placing the reaction plate on the shaker and adding 20 μl of 10% trifluoroacetic acid (TFA) and shaking for 10 seconds. The amount of proteolysis is then determined by separation of noncleaved substrate and two cleaved products with reverse-phase HPLC, while measuring absorbance at 220 nm to determine the relative peak areas of the three components. The relative peak areas are used to calculate % conversion to product as a function of inhibitor concentration. The data are plotted as % Control (the ratio of % conversion in the presence and absence of inhibitor×100) versus inhibitor concentration and fitted with the equation Y=100/1+(X/IC50)^A, where IC50 is the inhibitor concentration at 50% inhibition and A is the slope of the inhibition curve.

Turning to `CC(=O)CC(c1ccccc1)c1c(O)c2ccccc2oc1=O` (stereo not drawn) [Warfarin, 3-(α-acetonylbenzyl)-4-hydroxycoumarin], in the assay with HIV, the “inhibition of cell-free and cell-mediated HIV infection (in words)” value was “inhibiting cell-free and cell-mediated HIV infection”.

On to `O=C1OC(CCc2ccccc2)(c2ccccc2)CC(O)=C1SCc1ccc2c(c1)OCO2` (racemic) [Example 107, 3-(Benzo[1,3]dioxol-5-ylmethylthio)-5,6-dihydro-4-hydroxy-6-phenyl-6-(2-phenylethyl)-2H-pyran-2-one], for which the MIC was 50 µg/mL (≈ 109 µM) in assay [1]; 50 µg/mL (≈ 109 µM) in assay [2]; 50 µg/mL (≈ 109 µM) in assay [3]; 100 µg/mL (≈ 217 µM) in assay [4]; 50 µg/mL (≈ 109 µM) in assay [5]. In addition, the EC50 with HIV1iiib in H9 cells is 8 µM. On HIV-1 Protease, the IC50 worked out at 110 nM.

On to `Cc1ccc(C(C)C)c(SC2=C(O)CC(CCc3ccc4c(c3)OCO4)(c3ccccc3)OC2=O)c1` (stereo not drawn) [Example 133], for which the MIC in assay [1] was 25 µg/mL (≈ 49.7 µM); in assay [2], 25 µg/mL (≈ 49.7 µM); in assay [3], 6.25 µg/mL (≈ 12.4 µM); in assay [4], 12.5 µg/mL (≈ 24.9 µM); in assay [5] it was 12.5 µg/mL (≈ 24.9 µM).

Turning to `CC(C)c1ccccc1SC1=C(O)CC(CCc2ccccc2)(c2ccccc2)OC1=O` (racemic) [Example 72, 5,6-Dihydro-4-hydroxy-3-(2-isopropylphenylthio)-6-phenyl-6-(2-phenylethyl)-2H-pyran-2-one], the MIC in assay [1] is 100 µg/mL (≈ 225 µM); in assay [2], 25 µg/mL (≈ 56.2 µM); in assay [3] it was 25 µg/mL (≈ 56.2 µM); in assay [4], 25 µg/mL (≈ 56.2 µM); in assay [5], 25 µg/mL (≈ 56.2 µM).
